Results reported in patent US11071300B2, “Pesticidally active pyrazole derivatives” (SYNGENTA PARTICIPATIONS AG, priority 2017, dated 2021).

Assays:
Format in all cases: in vivo
Spodoptera littoralis = Spodoptera littoralis (Egyptian cotton leaf worm) leaf disc test; settings: foliar, 72 h, application rate 200 ppm, cotton leaf discs sprayed, L1 larvae, 3 days after infestation, read-out: control (at least one of mortality, anti-feedant effect, growth inhibition)
Summary of the method: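 Five first-instar larvae per disc were placed on dried, sprayed cotton leaf discs held on agar. Test solutions were aqueous, made from 10′000 ppm DMSO stocks. At day 3, control was counted when mortality, feeding deterrence or growth inhibition exceeded the untreated discs.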

Plutella xylostella = Plutella xylostella (diamond back moth) artificial diet test; settings: 120 h, application rate 200 ppm, artificial diet, L2 larvae, 5 days after infestation, read-out: control (mortality and growth inhibition)
Method: Plutella xylostella (Diamond Back Moth):
24-well microtiter plates with artificial diet were treated with aqueous test solutions prepared from 10′000 ppm DMSO stock solutions by pipetting. After drying, the plates were infested with L2 larvae (10 to 15 per well). The samples were assessed for mortality and growth inhibition in comparison to untreated samples 5 days after infestation.

Diabrotica Balteata = experiment: Diabrotica balteata (corn root worm) maize sprout test; settings: 96 h, application rate 200 ppm, maize sprouts sprayed, L2 larvae, 4 days after infestation, read-out: control (mortality and growth inhibition)
Method: Diabrotica Balteata, (Corn Root Worm)
Maize sprouts, placed on an agar layer in 24-well microtiter plates were treated with aqueous test solutions prepared from 10′000 ppm DMSO stock solutions by spraying. After drying, the plates were infested with L2 larvae (6 to 10 per well). The samples were assessed for mortality and growth inhibition in comparison to untreated samples 4 days after infestation.

Thrips tabaci = Thrips tabaci (onion thrips) leaf disc test; settings: foliar, 144 h, application rate 200 ppm, sunflower leaf discs sprayed, mixed ages, 6 days after infestation, read-out: control (mortality)
Method: Thrips tabaci (Onion Thrips):
Sunflower leaf discs were placed on agar in 24-well microtiter plates and sprayed with aqueous test solutions prepared from 10′000 ppm DMSO stock solutions. After drying the leaf discs were infested with a thrips population of mixed ages. The samples were assessed for mortality 6 days after infestation.

Tetranychus urticae = Tetranychus urticae (two-spotted spider mite) leaf disc test; settings: foliar, 192 h, application rate 200 ppm, bean leaf discs sprayed, 8 days after infestation, read-out: control (mortality on mixed population, mobile stages)
Method: Tetranychus urticae (Two-Spotted Spider Mite):
Bean leaf discs on agar in 24-well microtiter plates were sprayed with aqueous test solutions prepared from 10′000 ppm DMSO stock solutions. After drying the leaf discs were infested with a mite population of mixed ages. The samples were assessed for mortality on mixed population (mobile stages) 8 days after infestation.

Euschistus heros = Euschistus heros (neotropical brown stink bug) soybean leaf test; settings: 120 h, application rate 200 ppm, soybean leaves sprayed, N2 nymphs, 5 days after infestation, read-out: control (mortality and growth inhibition)
Method: Euschistus heros (Neotropical Brown Stink Bug):
Soybean leaves on agar in 24-well microtiter plates were sprayed with aqueous test solutions prepared from 10′000 ppm DMSO stock solutions. After drying the leaves were infested with N2 nymphs. The samples were assessed for mortality and growth inhibition in comparison to untreated samples 5 days after infestation.

Myzus persicae = Myzus persicae (green peach aphid) leaf disc test; settings: foliar, 144 h, application rate 200 ppm, sunflower leaf discs sprayed, mixed ages, 6 DAT, read-out: control (mortality)
Method: Myzus persicae (Green Peach Aphid):
Sunflower leaf discs were placed on agar in a 24-well microtiter plate and sprayed with test solutions at an application rate of 200 ppm. After drying, the leaf discs were infested with an aphid population of mixed ages. After an incubation period of 6 DAT, samples were checked for mortality.

CCN(C(=O)c1cc(-c2cnn(-c3c(C(F)(F)F)c(OS(=O)(=O)C(F)(C(F)(F)F)C(F)(F)F)nn3C)c2)ccc1Cl)C1(C#N)CC1 [Compound 45, [5-[4-[4-chloro-3-[(1-cyanocyclopropyl)-ethyl-carbamoyl]phenyl]pyrazol-1-yl]-1-methyl-4-(trifluoromethyl)pyrazol-3-yl] 1,1,1,2,3,3,3-heptafluoropropane-2-sulfonate]
≥ 80%: percent control (mortality, anti-feedant effect or growth inhibition) at 200 ppm (Spodoptera littoralis) | mortality at 200 ppm (Plutella xylostella) | mortality at 200 ppm (Diabrotica Balteata) | mortality at 200 ppm (Thrips tabaci) | mortality at 200 ppm (Tetranychus urticae) | mortality at 200 ppm (Euschistus heros) | mortality at 200 ppm (Myzus persicae)

Cn1nc(OS(=O)(=O)C(F)(C(F)(F)F)C(F)(F)F)c(C(F)(F)F)c1-n1cc(-c2ccc(Cl)c(C(=O)N(C(=O)C(C)(C)C)C3(C#N)CC3)c2)cn1 [Compound 59, [5-[4-[4-chloro-3-[(1-cyanocyclopropyl)-(2,2-dimethylpropanoyl)carbamoyl]phenyl]pyrazol-1-yl]-1-methyl-4-(trifluoromethyl)pyrazol-3-yl] 1,1,1,2,3,3,3-heptafluoropropane-2-sulfonate]
≥ 80%: percent control (mortality, anti-feedant effect or growth inhibition) at 200 ppm (Spodoptera littoralis) | mortality at 200 ppm (Plutella xylostella) | mortality at 200 ppm (Diabrotica Balteata) | mortality at 200 ppm (Thrips tabaci) | mortality at 200 ppm (Tetranychus urticae) | mortality at 200 ppm (Euschistus heros) | mortality at 200 ppm (Myzus persicae)

Cn1nc(OS(=O)(=O)C(F)(C(F)(F)F)C(F)(F)F)c(C(F)(F)F)c1-n1cc(-c2ccc(Cl)c(C(=O)N(CC#N)C3(C#N)CC3)c2)cn1 [Compound 49, [5-[4-[4-chloro-3-[(1-cyanocyclopropyl)-(cyanomethyl)carbamoyl]phenyl]pyrazol-1-yl]-1-methyl-4-(trifluoromethyl)pyrazol-3-yl] 1,1,1,2,3,3,3-heptafluoropropane-2-sulfonate]
≥ 80%: percent control (mortality, anti-feedant effect or growth inhibition) at 200 ppm (Spodoptera littoralis) | mortality at 200 ppm (Plutella xylostella) | mortality at 200 ppm (Diabrotica Balteata) | mortality at 200 ppm (Thrips tabaci) | mortality at 200 ppm (Tetranychus urticae) | mortality at 200 ppm (Euschistus heros) | mortality at 200 ppm (Myzus persicae)

Cn1nc(OS(=O)(=O)C(F)(C(F)(F)F)C(F)(F)F)c(C(F)(F)F)c1-c1cc(-c2ccc(Cl)c(C(=O)NC3CC3)c2)on1 [Compound 33, [5-[5-[4-chloro-3-(cyclopropylcarbamoyl)phenyl]isoxazol-3-yl]-1-methyl-4-(trifluoromethyl)pyrazol-3-yl] 1,1,1,2,3,3,3-heptafluoropropane-2-sulfonate]
≥ 80%: percent control (mortality, anti-feedant effect or growth inhibition) at 200 ppm (Spodoptera littoralis) | mortality at 200 ppm (Plutella xylostella) | mortality at 200 ppm (Diabrotica Balteata) | mortality at 200 ppm (Thrips tabaci) | mortality at 200 ppm (Tetranychus urticae) | mortality at 200 ppm (Euschistus heros) | mortality at 200 ppm (Myzus persicae)

CN(C(=O)c1cc(-c2cc(-c3c(C(F)(F)F)c(OS(=O)(=O)C(F)(C(F)(F)F)C(F)(F)F)nn3C)no2)ccc1Cl)C1(C#N)CC1 [Compound 37, [5-[5-[4-chloro-3-[(1-cyanocyclopropyl)-methyl-carbamoyl]phenyl]isoxazol-3-yl]-1-methyl-4-(trifluoromethyl)pyrazol-3-yl] 1,1,1,2,3,3,3-heptafluoropropane-2-sulfonate]
≥ 80%: percent control (mortality, anti-feedant effect or growth inhibition) at 200 ppm (Spodoptera littoralis) | mortality at 200 ppm (Plutella xylostella) | mortality at 200 ppm (Diabrotica Balteata) | mortality at 200 ppm (Thrips tabaci) | mortality at 200 ppm (Tetranychus urticae) | mortality at 200 ppm (Euschistus heros) | mortality at 200 ppm (Myzus persicae)
